Assay results as given in ChEMBL document CHEMBL3784938, “Novel heterocyclic ring-fused oleanolic acid derivatives as osteoclast inhibitors for osteoporosis” (Medchemcomm, 2016).
Blank lines part the entries; values can stand above or below the compound they belong to. Active and inactive are the calls of the source. The rule behind the calls is not given here.

What was measured:
RAW264.7 [1] = assay: Downregulation of RANKL-induced c-Fos protein expression in mouse RAW264.7 cells at 5 uM after 2 days by Western blot analysis; assay type: functional, cell-based
RAW264.7 [2] = assay: Antiosteoclast activity in mouse RAW264.7 cells assessed as inhibition of RANKL-induced osteoclast differentiation at 20 uM after 5 days by TRAP assay; assay type: functional; settings: RAW264.7, 120 h
Rattus norvegicus [3] = assay: Antiosteoporotic effect in ovariectomy rat model assessed as increase in bone mineral density of lumbar spine L3 to L5 at 1 mg/kg/day, po administered for 4 weeks by dual-energy X-ray absorptiometry relative to control; assay type: functional, organism-based
RAW264.7 [4] = assay: Downregulation of RANKL-induced NFATc1 protein expression in mouse RAW264.7 cells at 5 uM after 2 days by Western blot analysis; assay type: functional, cell-based
RAW264.7 [5] = assay: Downregulation of RANKL-induced CTR mRNA expression in mouse RAW264.7 cells at 1 to 5 uM after 4 days by RT-qPCR analysis; assay type: functional, cell-based
[6] = Cytotoxicity against mouse RAW264.7 cells assessed as inhibition of cell viability at 20 uM after 24 hrs by MTT assay; assay type: cell-based; settings: read-out: INH
RAW264.7 [7] = assay: Antiosteoclast activity in mouse RAW264.7 cells assessed as inhibition of RANKL-induced osteoclast differentiation at 2 uM after 5 days by TRAP assay; assay type: functional; settings: RAW264.7, 120 h
Rattus norvegicus [8] = assay: Toxicity in ovariectomy rat model assessed as reduction in uterine weight at 0.1 to 10 mg/kg/day, po administered for 4 weeks; assay type: organism-based; settings: in vivo, 672 h
Rattus norvegicus [9] = assay: Antiosteoporotic effect in ovariectomy rat model assessed as increase in bone mineral density of lumbar spine L3 to L5 at 0.1 mg/kg/day, po administered for 4 weeks by dual-energy X-ray absorptiometry relative to control; assay type: functional, organism-based
RAW264.7 [10] = assay: Downregulation of RANKL-induced CathK mRNA expression in mouse RAW264.7 cells at 1 to 5 uM after 4 days by RT-qPCR analysis; assay type: functional, cell-based
RAW264.7 [11] = assay: Downregulation of RANKL-induced c-Fos mRNA expression in mouse RAW264.7 cells at 1 to 5 uM after 2 days by RT-qPCR analysis; assay type: functional, cell-based
Rattus norvegicus [12] = assay: Toxicity in ovariectomy rat model assessed as undeveloped endometrial gland at 0.1 to 10 mg/kg/day, po administered for 4 weeks by haematoxylin/eosin staining based microscopy; assay type: organism-based; settings: in vivo, 672 h
RAW264.7 [13] = assay: Antiosteoclast activity in mouse RAW264.7 cells assessed as reduction in multinucleated osteoclasts at 2 to 20 uM after 5 days by TRAP assay; assay type: functional, cell-based
RAW264.7 [14] = assay: cells; settings: Mus musculus, RAW264.7, 120 h
Description: Antiosteoclast activity in mouse RAW264.7 cells assessed as inhibition of RANKL-induced osteoclast differentiation after 5 days by TRAP assay

[15] = Cytotoxicity against mouse RAW264.7 cells assessed as inhibition of cell viability at 10 uM after 24 hrs by MTT assay; assay type: cell-based; settings: read-out: INH
[16] = Cytotoxicity against mouse RAW264.7 cells assessed as inhibition of cell viability at 5 uM after 24 hrs by MTT assay; assay type: cell-based; settings: read-out: INH
RAW264.7 [17] = assay: Downregulation of RANKL-induced TRAP mRNA expression in mouse RAW264.7 cells at 1 to 5 uM after 4 days by RT-qPCR analysis; assay type: functional, cell-based
Rattus norvegicus [18] = assay: Toxicity in ovariectomy rat model assessed as undeveloped endometrial luminal epithelium at 0.1 to 10 mg/kg/day, po administered for 4 weeks by haematoxylin/eosin staining based microscopy; assay type: organism-based; settings: in vivo, 672 h
[19] = Cytotoxicity against mouse RAW264.7 cells assessed as inhibition of cell viability at 2 uM after 24 hrs by MTT assay; assay type: cell-based; settings: read-out: INH
Rattus norvegicus [20] = assay: Antiosteoporotic effect in ovariectomy rat model assessed as increase in bone mineral density of lumbar spine L3 to L5 at 10 mg/kg/day, po administered for 4 weeks by dual-energy X-ray absorptiometry relative to control; assay type: functional, organism-based
RAW264.7 [21] = assay: Downregulation of RANKL-induced NFATc1 mRNA expression in mouse RAW264.7 cells at 5 uM after 2 days by RT-qPCR analysis; assay type: functional, cell-based

Compound: COc1ccc(S(=O)(=O)n2cc3c(n2)C(C)(C)[C@@H]2CC[C@]4(C)[C@H](CC=C5[C@@H]6CC(C)(C)CC[C@]6(C(=O)NC6CCN(Cc7ccccc7)CC6)CC[C@]54C)[C@@]2(C)C3)cc1
inhibition (RAW264.7 [1]): Active | inhibition at 20 µM (RAW264.7 [2]): 100% | Activity (Rattus norvegicus [3]): Active | inhibition (RAW264.7 [4]): Active | inhibition (RAW264.7 [5]): Active | cytotoxicity at 24 h, 20 µM [6]: 58.2% | inhibition at 2 µM (RAW264.7 [7]): 90% | Activity (Rattus norvegicus [8]): Non-toxic | Activity (Rattus norvegicus [9]): inactive | inhibition (RAW264.7 [10]): Active | inhibition (RAW264.7 [11]): Active | Activity (Rattus norvegicus [12]): Non-toxic | inhibition (RAW264.7 [13]): Active | IC50 (RAW264.7 [14]): 24 nM | cytotoxicity at 24 h, 10 µM [15]: 6.6% | cytotoxicity at 24 h, 5 µM [16]: 0% | inhibition (RAW264.7 [17]): Active | Activity (Rattus norvegicus [18]): Non-toxic | cytotoxicity at 24 h, 2 µM [19]: 0% | Activity (Rattus norvegicus [20]): Active | inhibition (RAW264.7 [21]): Active

Compound: CC1(C)CC[C@]2(C(=O)NCCN3CCCCC3)CC[C@]3(C)C(=CC[C@@H]4[C@@]5(C)Cc6cn(S(=O)(=O)c7ccc(Br)cc7)nc6C(C)(C)[C@@H]5CC[C@]43C)[C@@H]2C1
inhibition at 20 µM (RAW264.7 [2]): 100% | cytotoxicity at 24 h, 20 µM [6]: 70.8% | inhibition at 2 µM (RAW264.7 [7]): 100% | IC50 (RAW264.7 [14]): 78 nM | cytotoxicity at 24 h, 10 µM [15]: 67.2% | cytotoxicity at 24 h, 5 µM [16]: 0% | cytotoxicity at 24 h, 2 µM [19]: 0%

Compound: NCCCC(O)(P(=O)(O)O)P(=O)(O)O [ALENDRONATE SODIUM]
Activity (Rattus norvegicus [3]): Active | inhibition at 2 µM (RAW264.7 [7]): 93.2% | IC50 (RAW264.7 [14]): 84 nM

Continued, in another order:

IC50 (RAW264.7 [14]): 99 nM
Compound: CC1(C)CC[C@]2(C(=O)NCCN3CCCCC3)CC[C@]3(C)C(=CC[C@@H]4[C@@]5(C)Cc6c[nH]nc6C(C)(C)[C@@H]5CC[C@]43C)[C@@H]2C1
inhibition at 20 µM (RAW264.7 [2]): 100% | cytotoxicity at 24 h, 20 µM [6]: 0% | inhibition at 2 µM (RAW264.7 [7]): 95.1% | cytotoxicity at 24 h, 10 µM [15]: 0% | cytotoxicity at 24 h, 5 µM [16]: 0% | cytotoxicity at 24 h, 2 µM [19]: 0%

IC50 (RAW264.7 [14]): 43 nM
Compound: CC1(C)CC[C@]2(C(=O)NCCN3CCCCC3)CC[C@]3(C)C(=CC[C@@H]4[C@@]5(C)Cc6cn(S(=O)(=O)c7ccc(F)cc7)nc6C(C)(C)[C@@H]5CC[C@]43C)[C@@H]2C1
inhibition at 20 µM (RAW264.7 [2]): 100% | cytotoxicity at 24 h, 20 µM [6]: 70.8% | inhibition at 2 µM (RAW264.7 [7]): 100% | cytotoxicity at 24 h, 10 µM [15]: 74% | cytotoxicity at 24 h, 5 µM [16]: 0% | cytotoxicity at 24 h, 2 µM [19]: 0%
